Results: US6337333B1, “Method of treating autoimmune disease with fludarabine-5′-monophosphate” (priority 1992, dated 2002)

Assays:
T and B lymphocytes = assay: Mitogen response of PBMC enriched for T or B lymphocytes continuously cultured with drug; format: cell-based, human; conditions: cultures continuously exposed to drug
Description: In FIG. 2, peripheral blood mononuclear cells enriched for either T (top) or B (bottom) lymphocytes were continuously cultured with the appropriate concentrations of drug for 3 or 6 days, respectively. The mitogen PHA-P was used at 5 μg/ml and the mitogen PWM was used at 1 μg/ml. The wells were pulsed and harvested as described above.
The adenosine analog 2-chlorodeoxyadenosine (2CDA) has also been reported to have significant cytotoxic and immunosuppressive effects on normal lymphocytes (10,13).

IgG production = assay: Cumulative IgG production in SAC + rIL-2 cultures, EIA; format: cell-based, human; conditions: for accumulation of IgG: 5 and 10 day SAC rIL-2 cultures, preliminary studies; for effect on IgG production: FIG. 7B
Description: In FIG. 7, peripheral blood mononuclear cells (PBMC) enriched for B lymphocytes (BC92; 35% CD19, 33% CD20, 35% CD3) were continuously cultured for 5 days in either medium alone, Staphylococcus aureus Cowan I (SAC) plus interleukin 2 (IL-2) (50 U/ml), or SAC plus IL-2 in the presence of various concentrations of FLP or 2-chlorodeoxyadenosine (2CDA). After 5 days of culture, the supernatants were harvested and serial dilutions of supernatant assayed for huIgM and huIgG by EIA. The presence of IgM rheumatoid factor (IgM-RF) was determined by EIA using the Vectastain Biotin-Streptavidin amplification system. Results are reported as O.D. 405 nm units. Nonspecific binding of neat supernatant to uncoated wells was <0.05% of that seen with the respective coated wells. The results shown are from 1 representative experiment of 4 separate experiments conducted with 4 different sources of packed leukocytes.
In FIG. 8, peripheral blood mononuclear cells (PBMC) enriched for B lymphocytes (BC92, 35% CD19, 33% CD20, 35% CD3) were continuously cultured for 10 days in either medium alone, Staphylococcus aureus Cowan I (SAC) plus interleukin 2 (IL-2) (50 U/ml), or SAC plus IL-2 in the presence of various concentrations of FLP or 2CDA. At the end of the culture period, the supernatants were harvested and serial dilutions assayed for huIgM, huIgG, and IgM-RF by EIA. The cells were phenotyped by flowcytometry. Results are reported as O.D. 405 nm units. Nonspecific binding of neat supernatants to uncoated wells was <0.5% of that seen with parallel coated wells. The results shown are from 1 experiment representative of 3 separate experiments conducted with 3 different sources of packed leukocytes.
In FIG. 9, peripheral blood mononuclear cells (PBMC) (BC93; 22% CD19, 20% CD20, 78% CD3) were continuously cultured for 5 days in either medium alone, Staphylococcus aureus Cowan I (SAC) plus interleukin 2 (IL-2) (50 U/ml) or 20% T cell conditioned medium (Tcm) in the presence of various concentrations of FLP. At the end of the 5 day culture period, the supernatants were harvested and serial dilutions assayed for huIgM, huIgG, and IgM-RF by EIA. The results are reported as O.D. 405 nm units. Nonspecific binding of neat supernatants to uncoated wells was <0.05% of parallel coated wells. The results shown are from one representative experiment.
Immulon-2 (Dynatek Laboratories, #011-010-3450, Chantilly, Va.) flat-bottom 96 well microtiter plates were coated with 100 μl/well of a 2 μg/ml solution of goat F(ab′)2 anti-HuIgM (μ chain, CALTAG #H15100, So. San Francisco, Calif.) or goat F(ab′)2 anti-HuIgG (Fc sp., CALTAG #H10100) in 0.1 M sodium carbonate buffer, pH 9.6 overnight at 4° C. Uncoated wells were incubated with the carbonate buffer alone. The plates were rinsed and then incubated with 100 μl/well of 0.1% BSA/PBS for 1 hr at RT. The plates were rinsed twice with PBS and then incubated for 2 hrs at RT with the respective serial dilutions of culture supernatant and human IgM or IgG standards (Sigma, St.
Louis, Mo.). All dilutions were made in complete S-10 medium (see above). At the end of the incubation period, the plates were rinsed 3 times with PBS/0.05% Tween-20. 100 μl of a 1/500 dilution of goat F(ab′)2 anti-IgM (m) or anti-IgG (H+L) conjugated with alkaline phosphatase (Fisher Biotech, #OB1210-ALPH and #OB1220-ALPH, Pittsburg, Pa.) was added to each well and incubated for 1 hr at RT. The plates were rinsed 3-5 times with PBS/0.05% Tween-20 and 100 μl/well of p-nitrophenyl phosphate substrate (Bio-Rad, Richmond, Calif.) was added and incubated for 30 min. The wells were read at 405 nm with an InterMed NJ-2000 immunoreader. The concentration of sample IgM or IgG was calculated off of a standard curve using the XFROMY linear regression analysis on RS-1 (VAX-VMS). Nonspecific binding was determined from low-dilution samples incubated in parallel in uncoated wells (<0.005% O.D. 405 nm of coated wells). […]

Row | SMILES | level of drug that suppresses the mitogen response (T and B lymphocytes) [µg/mL] | accumulation of IgG (IgG production) | effect on IgG production (IgG production; one microgram per ml, 5 days) | effect on IgG accumulation (IgG production; one microgram per ml, 10 days) | effect on IgG accumulation (IgG production; 0.1 μg/ml, 10 days, FIG. 8B) | reduction of IgG accumulation (IgG production; 1 μg, 10 days, FIG. 8B) [%] | reduction of IgG accumulation (IgG production; 5 μg, 10 days, FIG. 8B) [%] | reduction of IgG accumulation (IgG production; 0.1 and 0.5 μg/ml, PBMC, 5 days, cultures supplemented with T cell conditioned medium, FIG. 9B) | effect on IgG production (IgG production; one hundred nanograms per ml, 5 days)
1 | Nc1nc(Cl)nc2c1ncn2[C@H]1C[C@H](O)[C@@H](CO)O1 [2CDA, 2-chlorodeoxyadenosine] | 0.5 | dose-related decrease | block | block the accumulation |  |  |  |  | 
2 | Nc1nc(F)nc2c1ncn2[C@@H]1O[C@H](COP(=O)(O)O)[C@@H](O)[C@@H]1O [FLP, fludarabine-5′-monophosphate] | 0.5 | dose-related decrease |  |  | minimal effect | 80 | 98 | not seen | minimal effect
